The target in one assay is T1, MetRS (T. brucei) (Trypanosoma brucei brucei, UniProt Q38C91).
T1 sequence (Q38C91 1-773): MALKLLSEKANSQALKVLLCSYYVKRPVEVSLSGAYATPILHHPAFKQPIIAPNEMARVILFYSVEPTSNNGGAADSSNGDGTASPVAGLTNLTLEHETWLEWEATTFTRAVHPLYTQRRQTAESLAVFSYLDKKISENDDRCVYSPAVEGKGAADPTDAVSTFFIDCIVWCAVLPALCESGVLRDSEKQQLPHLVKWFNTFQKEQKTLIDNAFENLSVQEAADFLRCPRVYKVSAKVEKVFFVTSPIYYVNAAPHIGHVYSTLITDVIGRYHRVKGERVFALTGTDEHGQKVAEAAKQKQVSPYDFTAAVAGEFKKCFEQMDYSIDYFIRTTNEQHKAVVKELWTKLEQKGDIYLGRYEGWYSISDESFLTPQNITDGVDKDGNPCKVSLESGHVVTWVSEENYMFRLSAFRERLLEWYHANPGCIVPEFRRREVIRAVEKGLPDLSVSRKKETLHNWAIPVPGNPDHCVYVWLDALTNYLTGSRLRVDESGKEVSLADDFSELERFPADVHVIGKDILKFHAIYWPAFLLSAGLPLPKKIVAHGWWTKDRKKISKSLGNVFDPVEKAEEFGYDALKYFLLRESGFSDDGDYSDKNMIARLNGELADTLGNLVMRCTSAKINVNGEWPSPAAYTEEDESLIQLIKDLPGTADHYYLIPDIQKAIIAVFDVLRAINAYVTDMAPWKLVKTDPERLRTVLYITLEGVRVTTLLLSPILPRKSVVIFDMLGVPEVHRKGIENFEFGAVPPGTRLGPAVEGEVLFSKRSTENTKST
Briefly: MetRS (T. brucei) enzyme inhibition. In kind it is biochemical.

A further assay concerns the target MetRS (C. parvum) (Cryptosporidium parvum, UniProt Q5CVN0). Nature of the assay: MetRS (C. parvum) enzyme inhibition. Type of assay: biochemical. To be noted: read-out: (C) MetRS (C. parvum) IC50.
The test system of another assay is T. brucei. Nature of the assay: T. brucei growth inhibition. In kind it is cell-based, Trypanosoma brucei. The settings on record: read-out: (D) T. brucei EC50.
The subject of another assay is T. cruzi. Nature of the assay: T. cruzi growth inhibition. Type of assay: cell-based, Trypanosoma cruzi. To be noted: read-out: (E) T. cruzi EC50.
A further assay has as its system C. parvum. Briefly: C. parvum growth inhibition. In kind it is cell-based, Cryptosporidium parvum. To be noted: read-out: (J) C. parvum EC50.
The subject of assay [1] is S. aureus MSSA (ATCC 29213). Nature of the assay: MIC susceptibility testing. Type of assay: cell-based, Staphylococcus aureus. To be noted: Staphylococcus aureus, S. aureus ATCC 29213; read-out: (F) S. aureus (ATCC 29213) MIC. The text has this: Media and culture conditions. Mueller Hinton broth (MHB), cation adjusted Mueller Hinton broth (CA-MHB), and Brain Heart Infusion broth (BHI) were purchased from Becton Dickinson (Franklin Lakes, N.J.). Tryptic soy agar (TSA) plates, TSA with 5% sheep blood plates, and CA-MHB with 3% laked horse blood were purchased from Remel (San Diego, Calif.). MHB was used to assay all Staphylococcus aureus strains. CA-MHB was used for Staphylococcus epidermidis, Enterococcus faecalis, Enterococcus faecium, Escherichia coli, and Pseudomonas aeruginosa. CA-MHB supplemented with 3% laked horse blood was used for Streptococcus pneumoniae and Streptococcus pyogenes. Staphylococcus, Enterococcus, Escherichia, and Pseudomonas strains were cultured at 37° C. with ambient air. Streptococcus strains were cultured in 37° C. with 5% CO2. Separate conditions for radiolabeled precursor uptake assays are described below.
Susceptibility testing: Minimum inhibitory concentration (MIC) determinations were performed in triplicate in 96-well round bottom microtiter plates (Corning, Corning N.Y.) as described by the Clinical and Laboratory Standards Institute (CLSI). Serial two-fold dilutions of compounds were added to plates in 50 μL volumes. An additional 50 μL of media containing bacterial cells (1×10^6 CFUs/mL) was then added to each well. Maximum DMSO concentrations were 0.5%. Plates were incubated at 37° C. for at least 18 h before reading the susceptibility result by optical absorbance (OD600) using a BioTek ELx800. The lowest concentration causing ≥90% growth inhibition compared to the untreated control was recorded as the MIC (and also corresponded to the visual MIC). MICs were measured at least twice and the higher value (if different) was recorded herein.

pEC50, pIC50: −log10 of the molar value. Values after ≈ are worked out from the molar mass of the structure shown. Values joined by “and” are separate entries in the source; they are usually repeats but may differ in a detail not shown here. Equal values may be shown once. Read-outs that look alike come from different tables or passages of the source.

Sequence of MetRS (C. parvum) (Q5CVN0 entry or part of it): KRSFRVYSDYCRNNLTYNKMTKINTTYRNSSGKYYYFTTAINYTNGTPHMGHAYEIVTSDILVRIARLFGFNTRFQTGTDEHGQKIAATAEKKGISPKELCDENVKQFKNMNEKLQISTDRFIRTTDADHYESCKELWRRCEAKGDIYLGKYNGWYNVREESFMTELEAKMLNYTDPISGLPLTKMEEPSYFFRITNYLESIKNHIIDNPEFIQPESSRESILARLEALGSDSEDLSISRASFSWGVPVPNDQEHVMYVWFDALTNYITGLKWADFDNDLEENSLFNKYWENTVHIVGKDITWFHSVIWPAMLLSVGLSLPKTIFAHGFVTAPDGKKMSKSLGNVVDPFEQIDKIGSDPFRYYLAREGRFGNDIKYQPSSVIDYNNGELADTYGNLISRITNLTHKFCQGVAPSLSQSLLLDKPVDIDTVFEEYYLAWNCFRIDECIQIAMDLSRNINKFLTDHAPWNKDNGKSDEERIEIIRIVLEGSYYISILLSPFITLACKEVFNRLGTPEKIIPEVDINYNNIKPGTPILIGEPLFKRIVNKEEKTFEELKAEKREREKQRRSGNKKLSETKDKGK

The pIC50 is the IC50 on a negative log10 scale, so that one unit is a factor of ten. The pEC50 is the negative decadic logarithm of the EC50, by convention in mol/L. On to `COc1ccc(-c2cnn3c2CN(Cc2nc4nc(F)ccc4[nH]2)CC3)c(Cl)c1` [Compound 2170, 2-((3-(2-chloro-4-methoxyphenyl)-6,7-dihydropyrazolo[1,5-a]pyrazin-5(4H)-yl)methyl)-5-fluoro-1H-imidazo[4,5-b]pyridine], for which the pIC50 against MetRS (T. brucei) and on MetRS (C. parvum) was over 7.40 each time. The pEC50 is 7.19 in the assay with T. brucei (Trypanosoma brucei), 5.87 with T. cruzi (Trypanosoma cruzi) and 5.75 in the assay on C. parvum (Cryptosporidium parvum).

`COc1ccc(Cc2cn(Cc3nc4nc(Cl)ccc4[nH]3)c(=O)n2CC(C)(C)NC(C)=O)c(Cl)c1` [Compound 2209, N-{1-[3-({5-chloro-1H-imidazo[4,5-b]pyridin-2-yl}methyl)-5-[(2-chloro-4-methoxyphenyl)methyl]-2-oxo-2,3-dihydro-1H-imidazol-1-yl]-2-methylpropan-2-yl}acetamide]: the pIC50 on MetRS (T. brucei) was 6.42 and 6.11. The pEC50 was 5.34 in the assay with T. cruzi (Trypanosoma cruzi) and under 5.70 in the assay on C. parvum (Cryptosporidium parvum).

With `CCn1c(Cc2ccc(Cl)cc2Cl)cn(Cc2nc3c(ccc(Cl)[n+]3[O-])[nH]2)c1=O` [Compound 2235, 1-({5-chloro-4-oxo-1H-4λ^5-imidazo[4,5-b]pyridin-2-yl}methyl)-4-[(2,4-dichlorophenyl)methyl]-3-ethyl-2,3-dihydro-1H-imidazol-2-one], at MetRS (C. parvum), the pIC50 was under 6.00. The pEC50 in the assay with T. brucei (Trypanosoma brucei) was 5.98; in the assay with C. parvum (Cryptosporidium parvum), under 5.70.

Consider `COC(=O)c1c(Cl)ccc2[nH]c(Cc3cn4c(-c5ccc(OC)cc5Cl)cccc4n3)nc12` [Compound 2236, methyl 5-chlor0-2-{[5-(2-chloro-4-methoxyphenyl)imidazo[1,2-a]pyridin-2-yl]methyl}-1H-1,3-benzodiazole-4-carboxylate], for which the negative-log IC50 (pIC50) on MetRS (C. parvum) is 6.47. Besides, the figures for the pEC50 in the assay with T. brucei (Trypanosoma brucei) and with C. parvum (Cryptosporidium parvum) were 5.78 and under 5.70, respectively.

As for `COC(=O)c1c(Cl)ccc2[nH]c(Cn3cc(Cc4ccc(OC)cc4Cl)n(CC(C)(C)O)c3=O)nc12` [Compound 2237, methyl 5-chlor0-2-({4-[(2-chloro-4-methoxyphenyl)methyl]-3-(2-hydroxy-2-methylpropyl)-2-oxo-2,3-dihydro-1H-imidazol-1-yl}methyl)-1H-1,3-benzodiazole-4-carboxylate], the pIC50 at MetRS (C. parvum) is under 6.00. In addition, the pEC50 with T. brucei (Trypanosoma brucei) is 6.26; in the assay with C. parvum (Cryptosporidium parvum) it was under 5.70.

For `COc1ccc(Cc2cn(Cc3nc4ncc(Cl)c(C)c4[nH]3)c(=O)n2CC(C)(C)O)c(Cl)c1` [Compound 2238, 4-[(2-chloro-4-methoxyphenyl)methyl]-1-({6-chloro-7-methyl-1H-imidazo[4,5-b]pyridin-2-yl}methyl)-3-(2-hydroxy-2-methylpropyl)-2,3-dihydro-1H-imidazol-2-one], the negative logarithm of the IC50 (pIC50) on MetRS (C. parvum) was 6.90. The negative logarithm of the EC50 (pEC50) in the assay with T. brucei (Trypanosoma brucei) is 6.76; in the assay on C. parvum (Cryptosporidium parvum), under 5.70.

In the case of `COc1ccc(-c2cccn3c(=S)n(Cc4nc5nc(Cl)ccc5[nH]4)cc23)c(Cl)c1` [Compound 2243, 2-({5-chloro-1H-imidazo[4,5-b]pyridin-2-yl}methyl)-8-(2-chloro-4-methoxyphenyl)-2H,3H-imidazo[1,5-a]pyridine-3-thione], the pEC50 with T. cruzi (Trypanosoma cruzi) is 7.01; in the assay on T. cruzi it was 6.76; with C. parvum (Cryptosporidium parvum), 6.12; in the assay with C. parvum, 5.84.

Usually MIC stands for the smallest concentration in the dilution series that meets the test's criterion for growth inhibition. On to `COc1ccc(Cc2cn(Cc3nc4nc(Cl)ccc4[nH]3)c(=O)n2CC(F)F)c(Cl)c1` [Compound 2258, 1-({5-chloro-1H-imidazo[4,5-b]pyridin-2-yl}methyl)-4-[(2-chloro-4-methoxyphenyl)methyl]-3-(2,2-difluoroethyl)-2,3-dihydro-1H-imidazol-2-one], for which the MIC in assay [1] came to 0.415 µg/mL (≈ 0.886 µM). The pEC50 in the assay on T. brucei (Trypanosoma brucei) is over 9.04; in the assay on T. brucei, 8.87; in the assay with T. cruzi (Trypanosoma cruzi), 8.27; in the assay on T. cruzi it was 8.22; with C. parvum (Cryptosporidium parvum), 6.73; in the assay with C. parvum, 6.71.

Turning to `COc1ccc(Cc2cn(Cc3nc4c(F)c(F)ccc4[nH]3)c(=O)n2CC(F)F)c(Cl)c1` [Compound 2261, 4-[(2-chloro-4-methoxyphenyl)methyl]-1-[(6,7-difluoro-1H-1,3-benzodiazol-2-yl)methyl]-3-(2,2-difluoroethyl)-2,3-dihydro-1H-imidazol-2-one], the figures for the pEC50 in the assay on T. cruzi (Trypanosoma cruzi), in the assay with C. parvum (Cryptosporidium parvum) and in the assay with C. parvum were 6.67, 6.47 and 6.25, respectively.

As to `CCn1c(Cc2ccc(Cl)cc2Cl)cn(Cc2nc3ccc(F)c(F)c3[nH]2)c1=O` [Compound 2262, 4-[(2,4-dichlorophenyl)methyl]-1-[(6,7-difluoro-1H-1,3-benzodiazol-2-yl)methyl]-3-ethyl-2,3-dihydro-1H-imidazol-2-one], the MIC in assay [1] amounted to 0.557 µg/mL (≈ 1.27 µM). For the same molecule, the pEC50 with T. brucei (Trypanosoma brucei) was 7.72; in the assay with T. brucei, 7.59; with T. cruzi (Trypanosoma cruzi), 6.90; in the assay with C. parvum (Cryptosporidium parvum), 5.82.

On to `O=c1n(Cc2nc3c(F)c(F)ccc3[nH]2)cc(Cc2ccc(Cl)cc2Cl)n1CC(F)F` [Compound 2263, 4-[(2,4-dichlorophenyl)methyl]-1-[(6,7-difluoro-1H-1,3-benzodiazol-2-yl)methyl]-3-(2,2-difluoroethyl)-2,3-dihydro-1H-imidazol-2-one], for which, in assay [1], the MIC stood at 3.29 µg/mL (≈ 6.95 µM). Also, the pEC50 was 7.19 in the assay on T. brucei (Trypanosoma brucei), 7.16 in the assay with T. brucei, 6.44 in the assay on T. cruzi (Trypanosoma cruzi) and under 5.70 with C. parvum (Cryptosporidium parvum).

For the molecule `O=c1n(Cc2nc3c(F)c(F)ccc3[nH]2)cc(Cc2ccc(Cl)cc2Cl)n1CC1CCNCC1(F)F` (stereo not shown) [Compound 2264, 5-(2,4-dichlorobenzyl)-3-((4,5-difluoro-1H-benzo[d]imidazol-2-yl)methyl)-1-((3,3-difluoropiperidin-4-yl)methyl)-1H-imidazol-2(3H)-one], in assay [1], the MIC came to 1.22 µg/mL (≈ 2.25 µM). Also, the pEC50 with T. brucei (Trypanosoma brucei) is 7.40; with T. brucei, 7.14; with T. cruzi (Trypanosoma cruzi) it was 6.87; with C. parvum (Cryptosporidium parvum), under 5.70.

For `CC(=O)N1CCC(Cn2c(Cc3ccc(Cl)cc3Cl)cn(Cc3nc4nc(F)ccc4[nH]3)c2=O)C(F)(F)C1` (stereo not shown) [Compound 2265, 3-[(1-acetyl-3,3-difluoropiperidin-4-yl)methyl]-4-[(2,4-dichlorophenyl)methyl]-1-({5-fluoro-1H-imidazo[4,5-b]pyridin-2-yl}methyl)-2,3-dihydro-1H-imidazol-2-one], in assay [1], the MIC came to 1.62 µg/mL (≈ 2.86 µM). The negative logarithm of the EC50 (pEC50) in the assay with T. cruzi (Trypanosoma cruzi) is 6.49; in the assay on C. parvum (Cryptosporidium parvum) it was 5.74.

As to `OCCOc1cc(-c2cccc3nc(Cc4nc5nc(Cl)ccc5[nH]4)cn23)c(Cl)cc1Cl` [Compound 2270, 2-{2,4-dichloro-5-[2-({5-chloro-1H-imidazo[4,5-b]pyridin-2-yl}methyl)imidazo[1,2-a]pyridin-5-yl]phenoxy}ethan-1-ol], the pEC50 in the assay with T. brucei (Trypanosoma brucei) was 7.36; with T. cruzi (Trypanosoma cruzi), 6.15; in the assay with C. parvum (Cryptosporidium parvum), under 5.70.

Take `Clc1ccc2[nH]c(Cc3cn4c(-c5cc(OCCOC6CCCCO6)c(Cl)cc5Cl)cccc4n3)nc2n1` (stereo not shown) [Compound 2271, 2-({5-chloro-1H-imidazo[4,5-b]pyridin-2-yl}methyl)-5-{2,4-dichloro-5-[2-(oxan-2-yloxy)ethoxy]phenyl}-imidazo[1,2-a]pyridine]: the figures for the pEC50 in the assay with T. brucei (Trypanosoma brucei), in the assay on T. cruzi (Trypanosoma cruzi) and in the assay on C. parvum (Cryptosporidium parvum) were 7.27, 6.31 and under 5.70, respectively.

These data come from US11584744B2 (UNIVERSITY OF WASHINGTON, priority 2017, dated 2023).
